This experiment addresses T1, PDE5A1 (human PDE5 from platelets) (Homo sapiens, UniProt O76074).
T1 construct: from tissue; host or cells: platelets from fresh blood of human donors (10,000 g supernatant of sonified platelets)
The experiment is described as follows: Inhibition of type 5 phosphodiesterase (PDE5) activity, modified SPA test. The class given is biochemical. To be noted: PDE5-containing human platelet lysate, 0.5 μM cGMP, value classes, read-out: PDE5A1 inhibitory values [measured as −logIC50 (mol/l)] (converted). As for the experimental part:
Method for Measuring Inhibition of the Type 5 Phosphodiesterase (PDE5) Activity:
As a source for human PDE5, platelets are used. For that purpose, 150 ml fresh blood from human donors anticoagulated with citrate [final concentration 0.3% (w/v)] is centrifuged at 200 g for 10 min to obtain the so-called platelet-rich-plasma (PRP) as a supernatant. 1/10 volume of ACD solution (85 mM Na3-citrate, 111 mM D-glucose, 71 mM citric acid, pH 4.4) is added to 9/10 volume of PRP. After centrifugation (1,400 g, 10 min) the cell pellet is resuspended in 3 ml homogenization buffer (NaCl 140 mM, KCl 3.8 mM, EGTA (ethylene glycol tetraacetic acid) 1 mM, MgCl2 1 mM, Tris-HCl 20 mM, beta-mercaptoethanol 1 mM, pH 8.2) plus protease-inhibitor mix giving rise to the final concentrations of 0.5 mM Pefablock (Roche), 10 μM Leupeptin, 5 μM Trypsininhibitor, 2 mM Benzamidin and 10 μM Pepstatin A. The suspension is sonified and thereafter centrifuged for 15 min at 10,000 g. The resulting supernatant (platelet lysate) is used for enzymatic testings.
PDE5A1 activity is inhibited by the compounds of the present subject matter in a modified SPA (scintillation proximity assay) test, supplied by Amersham Biosciences (see procedural instructions “phosphodiesterase [3H]cAMP SPA enzyme assay, code TRKQ 7090”), carried out in 96-well microtitre plates (MTP's). The test volume is 100 μl and contains 20 mM Tris buffer (pH 7.4), 0.1 mg of BSA (bovine serum albumin)/ml, 5 mM Mg^2+, 1 μM motapizone, 10 nM PDE2 inhibitor 2-(3,4-dimethoxybenzyl)-7-[(1R,2R)-2-hydroxy-1-(2-phenylethyl)propyl]-5-methylimidazo[5,1-t][1,2,4]triazin-4(3H)-one, 0.5 μM cGMP (cyclic guanosine monophosphate) (including about 50,000 cpm of [3H]cGMP as a tracer), 1 μl of the respective compound dilution in dimethylsulfoxide (DMSO) and sufficient PDE5-containing platelet lysat (10,000×g supernatant, see above) to ensure that 10-20 wt % of the cGMP is converted under the said experimental conditions. […] After a preincubation of 5 min at 37° C., the reaction is started by adding the substrate (cGMP) and the assay is incubated for a further 15 min; after that, it is stopped by adding SPA beads (50 μl). In accordance with the manufacturer's instructions, the SPA beads had previously been resuspended in water, but are then diluted 1:3 (v/v) in water; the diluted solution also contains 3 mM 8-methoxymethyl-3-isobutyl-1-methylxanthine (IBMX) to ensure a complete PDE activity stop. After the beads have been sedimented (>30 min), the MTP's are analyzed in commercially available luminescence detection devices. The corresponding IC50 values of the compounds for the inhibition of PDE activity are determined from the concentration-effect curves by means of non-linear regression.

Bounds are passed on as bounds.

Here are results for 23 compounds from US8816085B2 (Takeda GmbH, priority 2009, dated 2014).

On to `CCOC(=O)N1CCC(NC(=O)c2c(C)[nH]c3c(-c4c(OCC5CC5)ccc5c4OCO5)ccnc23)CC1` [Example E04, Ethyl 4-[({7-[5-(cyclopropylmethoxy)-1,3-benzodioxol-4-yl]-2-methyl-1H-pyrrolo[3,2-b]pyridin-3-yl}carbonyl)amino]piperidine-1-carboxylate], for which the IC50 is under 1 nM.

As to `CC(=O)N[C@H]1CC[C@H](NC(=O)c2c(C)[nH]c3c(-c4c(OCC5CC5)ccc5c4OCO5)ccnc23)CC1` [Example E05, N-(trans-4-Acetamidocyclohexyl)-7-[5-(cyclopropylmethoxy)-1,3-benzodioxol-4-yl]-2-methyl-1H-pyrrolo[3,2-b]pyridine-3-carboxamide], the IC50 was under 1 nM.

Take `CC(=O)N[C@H]1CC[C@@H](NC(=O)c2c(C)[nH]c3c(-c4c(OCC5CC5)ccc5c4OCO5)ccnc23)CC1` [Example E06, N-(cis-4-acetamidocyclohexyl)-7-[5-(cyclopropylmethoxy)-1,3-benzodioxol-4-yl]-2-methyl-1H-pyrrolo[3,2-b]pyridine-3-carboxamide]: the IC50 was under 1 nM.

Consider `CCC(=O)N[C@H]1CC[C@@H](NC(=O)c2c(C)[nH]c3c(-c4c(OCC5CC5)ccc5c4OCO5)ccnc23)CC1` [Example E07, 7-[5-(Cyclopropylmethoxy)-1,3-benzodioxol-4-yl]-2-methyl-N-[cis-4-(propionylamino)cyclohexyl]-1H-pyrrolo[3,2-b]pyridine-3-carboxamide], for which the IC50 was under 1 nM.

As to `COCC(=O)N[C@H]1CC[C@@H](NC(=O)c2c(C)[nH]c3c(-c4c(OCC5CC5)ccc5c4OCO5)ccnc23)CC1` [Example E08, 7-[5-(Cyclopropylmethoxy)-1,3-benzodioxol-4-yl]-N-{cis-4-[(methoxyacetyl)amino]cyclohexyl}-2-methyl-1H-pyrrolo[3,2-b]pyridine-3-carboxamide], the IC50 is under 1 nM.

With `CCOC(=O)N[C@H]1CC[C@@H](NC(=O)c2c(C)[nH]c3c(-c4c(OCC5CC5)ccc5c4OCO5)ccnc23)CC1` [Example E09, Ethyl {cis-4-[({7-[5-(cyclopropylmethoxy)-1,3-benzodioxol-4-yl]-2-methyl-1H-pyrrolo[3,2-b]pyridin-3-yl}carbonyl)amino]cyclohexyl}carbamate], the IC50 was under 1 nM.

For `CC(=O)N1CCC(NC(=O)c2c(C)[nH]c3c(-c4ccc(F)cc4OCC4CC4)ccnc23)CC1` [Example E10, N-(1-Acetylpiperidin-4-yl)-7-[2-(cyclopropylmethoxy)-4-fluorophenyl]-2-methyl-1H-pyrrolo[3,2-b]pyridine-3-carboxamide], the IC50 was under 1 nM.

With `CCC(=O)N1CCC(NC(=O)c2c(C)[nH]c3c(-c4ccc(F)cc4OCC4CC4)ccnc23)CC1` [Example E11, 7-[2-(Cyclopropylmethoxy)-4-fluorophenyl]-2-methyl-N-(1-propanoylpiperidin-4-yl)-1H-pyrrolo[3,2-b]pyridine-3-carboxamide], the IC50 is under 1 nM.

`COCC(=O)N1CCC(NC(=O)c2c(C)[nH]c3c(-c4ccc(F)cc4OCC4CC4)ccnc23)CC1` [Example E12, 7-[2-(Cyclopropylmethoxy)-4-fluorophenyl]-N-[1-(methoxyacetyl)piperidin-4-yl]-2-methyl-1H-pyrrolo[3,2-b]pyridine-3-carboxamide]: the IC50 is 1 to 10 nM.

In the case of `CC(=O)N[C@H]1CC[C@H](NC(=O)c2c(C)[nH]c3c(-c4ccc(F)cc4OCC4CC4)ccnc23)CC1` [Example E13, N-[trans-4-(Acetylamino)cyclohexyl]-7-[2-(cyclopropylmethoxy)-4-fluorophenyl]-2-methyl-1H-pyrrolo[3,2-b]pyridine-3-carboxamide], the IC50 was under 1 nM.

With `CCC(=O)N[C@H]1CC[C@H](NC(=O)c2c(C)[nH]c3c(-c4ccc(F)cc4OCC4CC4)ccnc23)CC1` [Example E14], the IC50 was under 1 nM.

With `COCC(=O)N[C@H]1CC[C@H](NC(=O)c2c(C)[nH]c3c(-c4ccc(F)cc4OCC4CC4)ccnc23)CC1` [Example E15, 7-[2-(Cyclopropylmethoxy)-4-fluorophenyl]-N-{trans-4-[(methoxyacetyl)amino]cyclohexyl}-2-methyl-1H-pyrrolo[3,2-b]pyridine-3-carboxamide], the IC50 is under 1 nM.

Consider `CC(=O)N[C@H]1CC[C@@H](NC(=O)c2c(C)[nH]c3c(-c4ccc(F)cc4OCC4CC4)ccnc23)CC1` [Example E16, N-[cis-4-(Acetylamino)cyclohexyl]-7-[2-(cyclopropylmethoxy)-4-fluorophenyl]-2-methyl-1H-pyrrolo[3,2-b]pyridine-3-carboxamide], for which the IC50 is 1 to 10 nM.

As for `CCC(=O)N[C@H]1CC[C@@H](NC(=O)c2c(C)[nH]c3c(-c4ccc(F)cc4OCC4CC4)ccnc23)CC1` [Example E17], the IC50 is 1 to 10 nM.

As for `COCC(=O)N[C@H]1CC[C@@H](NC(=O)c2c(C)[nH]c3c(-c4ccc(F)cc4OCC4CC4)ccnc23)CC1` [Example E18, 7-[2-(Cyclopropylmethoxy)-4-fluorophenyl]-N-{cis-4-[(methoxyacetyl)amino]cyclohexyl}-2-methyl-1H-pyrrolo[3,2-b]pyridine-3-carboxamide], the IC50 is 1 to 10 nM.

Regarding `CC(=O)N1CCC(NC(=O)c2c(C)[nH]c3c(-c4cc(F)ccc4OCC4CC4)ccnc23)CC1` [Example E19, N-(1-Acetylpiperidin-4-yl)-7-[2-(cyclopropylmethoxy)-5-fluorophenyl]-2-methyl-1H-pyrrolo[3,2-b]pyridine-3-carboxamide], the IC50 is 1 to 10 nM.

Consider `CCC(=O)N1CCC(NC(=O)c2c(C)[nH]c3c(-c4cc(F)ccc4OCC4CC4)ccnc23)CC1` [Example E20, 7-[2-(Cyclopropylmethoxy)-5-fluorophenyl]-2-methyl-N-(1-propanoylpiperidin-4-yl)-1H-pyrrolo[3,2-b]pyridine-3-carboxamide], for which the IC50 was under 1 nM.

As to `COCC(=O)N1CCC(NC(=O)c2c(C)[nH]c3c(-c4cc(F)ccc4OCC4CC4)ccnc23)CC1` [Example E21, 7-[2-(Cyclopropylmethoxy)-5-fluorophenyl]-N-[1-(methoxyacetyl)piperidin-4-yl]-2-methyl-1H-pyrrolo[3,2-b]pyridine-3-carboxamide], the IC50 was 1 to 10 nM.

With `CC(=O)N[C@H]1CC[C@H](NC(=O)c2c(C)[nH]c3c(-c4cc(F)ccc4OCC4CC4)ccnc23)CC1` [Example E22, N-[trans-4-(Acetylamino)cyclohexyl]-7-[2-(cyclopropylmethoxy)-5-fluorophenyl]-2-methyl-1H-pyrrolo[3,2-b]pyridine-3-carboxamide], the IC50 was under 1 nM.

For the compound `CCC(=O)N[C@H]1CC[C@H](NC(=O)c2c(C)[nH]c3c(-c4cc(F)ccc4OCC4CC4)ccnc23)CC1` [Example E23, 7-[2-(Cyclopropylmethoxy)-5-fluorophenyl]-2-methyl-N-[trans-4-(propanoylamino)cyclohexyl]-1H-pyrrolo[3,2-b]pyridine-3-carboxamide], the IC50 was under 1 nM.

Turning to `COCC(=O)N[C@H]1CC[C@H](NC(=O)c2c(C)[nH]c3c(-c4cc(F)ccc4OCC4CC4)ccnc23)CC1` [Example E24, 7-[2-(Cyclopropylmethoxy)-5-fluorophenyl]-N-{trans-4-[(methoxyacetyl)amino]cyclohexyl}-2-methyl-1H-pyrrolo[3,2-b]pyridine-3-carboxamide], the IC50 was under 1 nM.

On to `CC(=O)N[C@H]1CC[C@@H](NC(=O)c2c(C)[nH]c3c(-c4cc(F)ccc4OCC4CC4)ccnc23)CC1` [Example E25, N-[cis-4-(Acetylamino)cyclohexyl]-7-[2-(cyclopropylmethoxy)-5-fluorophenyl]-2-methyl-1H-pyrrolo[3,2-b]pyridine-3-carboxamide], for which the IC50 was 1 to 10 nM.

For the compound `CCC(=O)N[C@H]1CC[C@@H](NC(=O)c2c(C)[nH]c3c(-c4cc(F)ccc4OCC4CC4)ccnc23)CC1` [Example E26, 7-[2-(Cyclopropylmethoxy)-5-fluorophenyl]-2-methyl-N-[cis-4-(propanoylamino)cyclohexyl]-1H-pyrrolo[3,2-b]pyridine-3-carboxamide], the IC50 was 1 to 10 nM.
